Experimental data from patent publication US7923440B2, “Method of treating or preventing immune mediated disorders and pharmaceutical formulation for use therein” (Pantarhei Bioscience B.V., priority 2002, dated 2011).

Tests used:
[1] = system: SJL/J mice with experimental autoimmune encephalomyelitis (EAE); experiment: PLP139-151 induced EAE in SJL/J mice, oral treatment; format: in vivo; settings: for EAE incidence / mean cumulative EAE score versus vehicle / mean cumulative EAE score: day 0-42; for mean cumulative EAE score: vehicle 17.4±5.0; for clinical EAE score in second phase (relapse): day 26 until day 42; for mean maximal clinical (disability) score: vehicle 1.8±0.3; for mean day of onset of EAE: vehicle day 12
[2] = system: DBA-1 mice developing collagen induced arthritis (CIA); experiment: Collagen induced arthritis (CIA) in female DBA-1 mice; format: in vivo, mouse
uterus = settings: continuous administration from a subcutaneous depot, Martucci et al. 1977; cited from earlier work
[3] = biological target: T1, rat uterine cytosol estrogen receptor (Rattus norvegicus, UniProt P06211); settings: Martucci et al. 1976; cited from earlier work
T1 construct: rat uterine cytosol estrogen receptor; host or cells: rat uterus, cytosol
T1 sequence (P06211 1-600): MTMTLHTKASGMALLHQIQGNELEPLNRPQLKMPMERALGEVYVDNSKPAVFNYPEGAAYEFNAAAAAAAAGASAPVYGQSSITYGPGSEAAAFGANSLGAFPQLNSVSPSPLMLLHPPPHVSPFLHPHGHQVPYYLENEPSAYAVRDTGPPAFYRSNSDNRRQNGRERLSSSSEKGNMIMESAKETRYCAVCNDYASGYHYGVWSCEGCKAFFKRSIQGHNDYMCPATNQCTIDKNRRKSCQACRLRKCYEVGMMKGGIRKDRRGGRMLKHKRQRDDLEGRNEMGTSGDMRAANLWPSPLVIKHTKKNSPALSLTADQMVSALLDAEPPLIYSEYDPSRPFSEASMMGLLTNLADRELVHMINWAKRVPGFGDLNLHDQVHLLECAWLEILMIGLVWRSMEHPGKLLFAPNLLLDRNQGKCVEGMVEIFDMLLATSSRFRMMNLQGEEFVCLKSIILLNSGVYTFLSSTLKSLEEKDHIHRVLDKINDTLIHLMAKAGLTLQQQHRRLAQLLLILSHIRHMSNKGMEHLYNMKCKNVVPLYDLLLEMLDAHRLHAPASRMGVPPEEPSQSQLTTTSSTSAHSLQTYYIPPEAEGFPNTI

[4] = system: estrogen receptors in the human endometrium; settings: cited from earlier work
[5] = Single rising oral dose study in healthy postmenopausal volunteers; format: in vivo, human
Description: To determine the bioavailability and elimination half-life of estetrol after oral dosing in humans a single rising dosing study was performed in healthy postmenopausal volunteers. Volunteers (n=6) were randomly assigned to 0.1, 1 or 10 mg estetrol and blood samples (18 per volunteer) were obtained over a period of 72 hours.
After thawing the plasma samples, liquid-liquid extraction (hexane and diethyl ether) was employed to prepare the estetrol-containing plasma samples for HPLC analysis (Perkin Elmer 200) and tandem mass spectrometry using a PE Sciex 4000 tandem mass spectrometer and APCI interface. With each sample batch, a calibration curve with 6 calibrators was recorded. The calibration curve was calculated using linear regression (correlation coefficient >0.98), which permitted quantitation of plasma concentrations.

[6] = system: human breast cancer cells (MCF-7); settings: in vitro cell proliferation, Jozan et al. 1981; cited from earlier work
[7] = biological target: T2, human sex Hormone Binding Globulin (SHBG) (Homo sapiens, UniProt P04278); experiment: Competitive steroid-binding assay for SHBG
T2 construct: made in house; host or cells: transgenic mouse (serum)
T2 sequence (P04278 30-402): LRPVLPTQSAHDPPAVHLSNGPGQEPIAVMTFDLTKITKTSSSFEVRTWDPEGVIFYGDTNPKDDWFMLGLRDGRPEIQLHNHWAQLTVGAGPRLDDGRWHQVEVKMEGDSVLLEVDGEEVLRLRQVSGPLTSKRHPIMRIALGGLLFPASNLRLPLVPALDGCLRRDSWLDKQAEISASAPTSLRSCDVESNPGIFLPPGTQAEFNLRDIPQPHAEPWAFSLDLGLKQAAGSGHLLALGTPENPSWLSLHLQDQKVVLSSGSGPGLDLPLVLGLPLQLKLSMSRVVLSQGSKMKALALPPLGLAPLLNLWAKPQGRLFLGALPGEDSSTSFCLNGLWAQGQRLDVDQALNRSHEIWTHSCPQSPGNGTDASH
Description: Human SHBG was treated for 30 min at room temperature with a dextran-coated charcoal (DCC) suspension in phosphate buffered saline (PBS) to remove any steroid ligand. After centrifugation (2,000×g for 10 min) to sediment the DCC, the supernatant containing the human SHBG was diluted in PBS to a concentration of 1 nM based on its steroid binding capacity.
The average amounts of [^3H]labeled ligands bound to SHBG at each concentration of competitor (B) were expressed as a percentage of the average amounts of [^3H]labeled ligands bound to SHBG in the absence of competitor (B0), and were plotted against the concentration of competitor in each assay tube.

[8] = ovariectomized female DBA-1 mice, sc and oral 0.1-3.0 mg/kg/day, 60 days

C[C@]12CC[C@@H]3c4ccc(O)cc4CC[C@H]3[C@@H]1[C@@H](O)[C@@H](O)[C@@H]2O [E4, 1,3,5 (10)-estratrien-3,15α,16α,17β-tetrol]
disease onset of EAE versus vehicle ([1]; oral 0.1 mg/kg/day): trend of delayed disease onset as compared to vehicle-treated mice, but this was not statistically significant | mean maximal clinical score versus vehicle ([1]; oral 0.1 mg/kg/day): did not show statistically significant differences | EAE incidence ([1]; oral 0.1 mg/kg/day): 70% | mean cumulative EAE score versus vehicle ([1]; oral 0.1 mg/kg/day): did not show statistically significant differences | disease onset of EAE versus vehicle ([1]; oral 0.3 mg/kg/day): trend of delayed disease onset as compared to vehicle-treated mice, but this was not statistically significant | mean maximal clinical score versus vehicle ([1]; oral 0.3 mg/kg/day): did not show statistically significant differences | EAE incidence ([1]; oral 0.3 mg/kg/day): 80% | mean cumulative EAE score versus vehicle ([1]; oral 0.3 mg/kg/day): did not show statistically significant differences | EAE incidence ([1]; oral 1 mg/kg/day): 33% | mean cumulative EAE score ([1]; oral 1 mg/kg/day): 3.9±1.8 | clinical EAE score in second phase (relapse) ([1]; oral 1 mg/kg/day): little evidence of disease activity | mean maximal clinical (disability) score ([1]; oral 1 mg/kg/day): 0.9±0.3 | mean day of onset of EAE ([1]; oral 1 mg/kg/day): 14.7 days | EAE incidence ([1]; oral 3 mg/kg/day): 40% | mean cumulative EAE score ([1]; oral 3 mg/kg/day): 5.8±2.9 | clinical EAE score in second phase (relapse) ([1]; oral 3 mg/kg/day): little evidence of disease activity | mean maximal clinical (disability) score ([1]; oral 3 mg/kg/day): 0.8±0.3 | mean day of onset of EAE ([1]; oral 3 mg/kg/day): 15.7 days | side-effects (clinical symptoms other than EAE) ([1]; oral once daily 0.1-3 mg/kg, 42 days): did not induce any significant side-effects | symptoms and severity of CIA ([2]; non-castrated female DBA-1, daily sc and/or oral): dose-dependently alleviate symptoms and severity of CIA | number of afflicted animals and/or severity of CIA symptoms [2, 8]: dose-dependently reduced | onset of CIA symptoms [2, 8]: dose-dependent effects in delaying the onset of CIA symptoms | uterotrophic activity (uterus): very weak uterotrophic activity | relative binding affinity, of 17β-estradiol (100%) [3]: 0.5% | relative binding constant compared to 17β-estradiol (100%) ([4]; Tseng et al. 1976): 6.25% | Relative binding to estrogen receptors, of 17β-estradiol ([4]; Tseng et al. 1978): 1.5% | half-life ([5]; female, human, plasma, po, human postmenopausal subjects, read-out: elimination half-life): > 15 h | tolerability ([5]; oral single dose 0.1, 1, 10 mg, postmenopausal volunteers): Good tolerability | AUC dose-linearity ([5]; oral single dose 0.1 to 10 mg, postmenopausal volunteers): good dose-linearity | agonistic potency relative to 17β-estradiol [6]: 2% | binding to human SHBG ([7]; [3H]DHT as labeled ligand): does not bind at all | binding to human SHBG ([7]; [3H]estradiol as labeled ligand): does not bind at all | relative binding affinity for human SHBG ([7]; comparison among tested steroids, order ethinylestradiol, 17β-estradiol, testosterone, 5α-dihydrotestosterone): negligible
